Laboratory results: PubChem BioAssay (NCI)
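Compound exposure: 48 hours, 5 concentrations, 96-well plates. GI50 = concentration required for 50% inhibition of growth. TGI is the concentration that stops growth completely.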

Assays:
Test in all cases: DTP human tumour cell line panel, 48 h
A498 renal = test system: A498 renal
ACHN renal = test system: ACHN renal
CAKI-1 renal = test system: CAKI-1 renal
COLO 205 colon = test system: COLO 205 colon
DU-145 prostate = test system: DU-145 prostate
HL-60(TB) leukemia = test system: HL-60(TB) leukemia
HS 578T breast = test system: HS 578T breast
KM12 colon = test system: KM12 colon
MCF7 breast = test system: MCF7 breast
MDA-MB-231 breast = test system: MDA-MB-231 breast
MDA-MB-435 = test system: MDA-MB-435
NCI-H226 lung = test system: NCI-H226 lung
NCI/ADR-RES ovarian = test system: NCI/ADR-RES ovarian
OVCAR-4 ovarian = test system: OVCAR-4 ovarian
OVCAR-5 ovarian = test system: OVCAR-5 ovarian
SF-539 CNS = test system: SF-539 CNS
SK-MEL-2 melanoma = test system: SK-MEL-2 melanoma
SK-MEL-28 melanoma = test system: SK-MEL-28 melanoma
SK-OV-3 ovarian = test system: SK-OV-3 ovarian
SN12C renal = test system: SN12C renal
SNB-75 CNS = test system: SNB-75 CNS
T-47D breast = test system: T-47D breast
TK-10 renal = test system: TK-10 renal
UACC-257 melanoma = test system: UACC-257 melanoma
UACC-62 melanoma = test system: UACC-62 melanoma

In the case of `Cc1ccc(NC(=O)c2ccc(CN3CCN(C)CC3)c(I)c2)cc1Oc1ccc(-c2[nH]nc3ncnc(N)c23)cc1`, the GI50 (A498 renal) is reported as 18.8 µM, the TGI (A498 renal) is reported as 38.3 µM and the GI50 (ACHN renal) is reported as 1.8 µM. The TGI (ACHN renal) was 3.33 µM, the GI50 (CAKI-1 renal) was 12 µM and the TGI (CAKI-1 renal) was 28.1 µM. It also gave a GI50 (COLO 205 colon) of 1.73 µM, a TGI (COLO 205 colon) of 5.08 µM and a GI50 (DU-145 prostate) of 1.88 µM. It also gave a TGI (DU-145 prostate) of 3.45 µM, a GI50 (HL-60(TB) leukemia) of 4.42 µM and a TGI (HL-60(TB) leukemia) greater than 100 µM. The GI50 (HS 578T breast) was 1.77 µM, the TGI (HS 578T breast) was 5.09 µM and the GI50 (KM12 colon) was 1.79 µM. For the same molecule, the TGI (KM12 colon) was 3.59 µM, the GI50 (MCF7 breast) was 1.35 µM and the TGI (MCF7 breast) was 2.94 µM. It also gave a GI50 (MDA-MB-231 breast) of 1.85 µM, a TGI (MDA-MB-231 breast) of 3.47 µM and a GI50 (MDA-MB-435) of 1.58 µM. It also gave a TGI (MDA-MB-435) of 3.01 µM, a GI50 (NCI-H226 lung) of 23.2 µM and a TGI (NCI-H226 lung) of 84.9 µM. It also gave a GI50 (NCI/ADR-RES ovarian) of 3.93 µM, a TGI (NCI/ADR-RES ovarian) of 40.7 µM and a GI50 (OVCAR-4 ovarian) of 18 µM. For the same molecule, the TGI (OVCAR-4 ovarian) was 40.7 µM, the GI50 (OVCAR-5 ovarian) was 1.94 µM and the TGI (OVCAR-5 ovarian) was 3.52 µM. The GI50 (SF-539 CNS) was 1.26 µM, the TGI (SF-539 CNS) was 2.68 µM and the GI50 (SK-MEL-2 melanoma) was 24.7 µM. It also gave a TGI (SK-MEL-2 melanoma) of 80.1 µM, a GI50 (SK-MEL-28 melanoma) of 1.63 µM and a TGI (SK-MEL-28 melanoma) of 3.12 µM. The GI50 (SK-OV-3 ovarian) was 26.2 µM, the TGI (SK-OV-3 ovarian) was 63.9 µM and the GI50 (SN12C renal) was 12.1 µM. For the same molecule, the TGI (SN12C renal) was 33.8 µM, the GI50 (SNB-75 CNS) was 0.458 µM and the TGI (SNB-75 CNS) was 20.8 µM. It also gave a GI50 (T-47D breast) of 2.72 µM, a TGI (T-47D breast) greater than 100 µM and a GI50 (TK-10 renal) of 5.33 µM. It also gave a TGI (TK-10 renal) of 28 µM, a GI50 (UACC-257 melanoma) of 2.03 µM and a TGI (UACC-257 melanoma) of 4.59 µM. It also gave a GI50 (UACC-62 melanoma) of 1.73 µM and a TGI (UACC-62 melanoma) of 3.35 µM.
